Test results from ChEMBL document CHEMBL1201862, “PubChem BioAssay data set” (2004).
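96-well plates; 48 h exposure; 5 concentrations. Endpoints by linear interpolation between flanking doses. Not reached: highest tested concentration assigned. GI50 marks 50% less growth.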 Calls of active or inactive are those of the source. Cut-off read from the data, not from the text of the source: active = GI50 up to about 1.1 µM and inactive = higher.

Assays:
Assay in all cases: inhibition of tumour cell growth, NCI panel, 48 h
[1] = tested on: LXFL 529
[2] = tested on: DMS-114
[3] = tested on: RXF 631
[4] = tested on: DMS-273
[5] = tested on: M19-MEL
[6] = tested on: KM-20L2
[7] = tested on: XF498
[8] = tested on: SNB-78
[9] = tested on: HOP-18

Compound | GI50 [1] | GI50 [2] | GI50 [3] | GI50 [4] | GI50 [5] | GI50 [6] | GI50 [7] | GI50 [8] | GI50 [9]
COc1ccc(Cc2cc(OC)c(OC)c(OC)c2)cc1O | 0.82 µM (active) | 0.127 µM (active) | 25.2 µM (inactive) | 0.0713 µM (active) | 0.0861 µM (active) | 51.6 µM (inactive) | 4.73 µM (inactive) |  | 
O=C(c1ccccc1)C1N=NN(Cc2ccccc2[N+](=O)[O-])C1C(=O)c1ccccc1 (stereo not drawn) | > 100 µM (inactive) | > 100 µM (inactive) |  | > 100 µM (inactive) | > 100 µM (inactive) | > 100 µM (inactive) |  | > 100 µM (inactive) | > 100 µM (inactive)
O=C1C2C(C(=O)N1c1ccccc1)C1([N+](=O)[O-])C=C3c4ccccc4N(C(=O)c4ccccc4)C32C2C(=O)N(c3ccccc3)C(=O)C21 (stereo not drawn) | > 100 µM (inactive) | > 100 µM (inactive) | > 100 µM (inactive) | > 100 µM (inactive) | > 100 µM (inactive) |  | > 100 µM (inactive) | > 100 µM (inactive) | 
CN1C(=O)C(=CN(C)c2ccccc2)C(=O)N(C)C1=O | > 100 µM (inactive) | 57.7 µM (inactive) |  | > 100 µM (inactive) | 49.2 µM (inactive) | > 100 µM (inactive) | > 100 µM (inactive) | > 100 µM (inactive) | 69.8 µM (inactive)
CC1CCCC(C(O)CC2CC(=O)N(c3ccccc3)C(=O)C2)C1=O (stereo not drawn) | > 100 µM (inactive) | > 100 µM (inactive) |  | > 100 µM (inactive) | > 100 µM (inactive) | > 100 µM (inactive) |  | > 100 µM (inactive) | > 100 µM (inactive)
C\C=C/C=C/C=C/C(=O)O | > 100 µM (inactive) | > 100 µM (inactive) |  | > 100 µM (inactive) |  | > 100 µM (inactive) |  | > 100 µM (inactive) | > 100 µM (inactive)
O=[N+]([O-])c1ccc(-n2nnc(C3=NCCN3)c2-c2ccccc2)cc1 | > 100 µM (inactive) | > 100 µM (inactive) |  | > 100 µM (inactive) | > 100 µM (inactive) | > 100 µM (inactive) | > 100 µM (inactive) | > 100 µM (inactive) | > 100 µM (inactive)
N#CC1=C(Cl)NC(Cl)=C(C#N)C1c1ccc(Cl)cc1 | 16.4 µM (inactive) | 15.2 µM (inactive) | 13 µM (inactive) | 17.1 µM (inactive) |  | 24.6 µM (inactive) | 14.1 µM (inactive) | 25.9 µM (inactive) | 17.6 µM (inactive)
COC(=O)c1c[nH]c2nc(N3CCOCC3)nn2c1=O |  | > 100 µM (inactive) |  | > 100 µM (inactive) | > 100 µM (inactive) | > 100 µM (inactive) |  | > 100 µM (inactive) | 
CC1=C(CC2C(=O)N(c3ccccc3)S(=O)(=O)NC2C)C(=O)N(c2ccccc2)S(=O)(=O)N1C (stereo not drawn) | > 100 µM (inactive) | > 100 µM (inactive) | > 100 µM (inactive) | > 100 µM (inactive) | > 100 µM (inactive) | > 100 µM (inactive) | > 100 µM (inactive) | > 100 µM (inactive) | 
CCOc1ccccc1NC(=O)C1=C(C)NC(C)=C(C(=O)Nc2ccccc2OCC)C1c1cccc([N+](=O)[O-])c1 | 24 µM (inactive) | 46.3 µM (inactive) |  | 72.1 µM (inactive) | > 100 µM (inactive) | 89.1 µM (inactive) | 17.7 µM (inactive) | 23.5 µM (inactive) | 
CC(=O)CC(=O)N(CCN(C(=O)CC(C)=O)c1ccccc1)c1ccccc1 | > 100 µM (inactive) | > 100 µM (inactive) |  |  | > 100 µM (inactive) | > 100 µM (inactive) | > 100 µM (inactive) | > 100 µM (inactive) | > 100 µM (inactive)
COc1cc2c(cc1OC)C1c3ccccc3C(C#N)(C2)N(C(=O)c2ccccc2)C1O (stereo not drawn) | 46.6 µM (inactive) | 41.2 µM (inactive) | > 100 µM (inactive) | 29.6 µM (inactive) | > 100 µM (inactive) | 82.4 µM (inactive) | 24.8 µM (inactive) | 37.1 µM (inactive) | > 100 µM (inactive)
Fc1cccc(/C=N/C23CC4CC(CC(C4)C2)C3)c1 | > 100 µM (inactive) | > 100 µM (inactive) |  | > 100 µM (inactive) | > 100 µM (inactive) | > 100 µM (inactive) | > 100 µM (inactive) | > 100 µM (inactive) | > 100 µM (inactive)
COC(=O)C1=C(O)c2cc3c(cc2[C@H](c2cc(OC)c(OC)c(OC)c2)C1)OCO3 | 37.8 µM (inactive) | 41.2 µM (inactive) | 54.7 µM (inactive) | 28.6 µM (inactive) | 0.478 µM (active) | 25.3 µM (inactive) | 25.9 µM (inactive) | 87.1 µM (inactive) | > 100 µM (inactive)
Clc1ccc(OCc2nnc3n2N=C(c2ccccc2)CS3)cc1 | 13.6 µM (inactive) |  | 14 µM (inactive) | 16 µM (inactive) | 16.9 µM (inactive) | 15.2 µM (inactive) | 17.1 µM (inactive) |  | 
CS(=O)(=O)N/N=C/CN1C(=O)c2ccccc2C1=O | > 100 µM (inactive) | > 100 µM (inactive) |  | > 100 µM (inactive) | > 100 µM (inactive) | > 100 µM (inactive) | > 100 µM (inactive) | > 100 µM (inactive) | > 100 µM (inactive)
CC1(Cl)CC(C)(/C=C/Cl)C(Cl)CC1Cl (stereo not drawn) | 14.7 µM (inactive) |  | 12.8 µM (inactive) |  | 18.7 µM (inactive) | 13.2 µM (inactive) | 14.4 µM (inactive) | 20.9 µM (inactive) | 
COC(=O)[C@@]12C(=O)C=CC(=O)[C@@H]1C1C(=CC2COC(C)=O)O[C@@H]2OC3(CCCCC3)O[C@H]12 (stereo partly drawn) | 4.28 µM (inactive) | 4.92 µM (inactive) | 21.9 µM (inactive) | 8.61 µM (inactive) | 15.5 µM (inactive) | 15.2 µM (inactive) | 13.2 µM (inactive) | 21.5 µM (inactive) | 10.3 µM (inactive)
CC1=CCCC2C(C=O)(C1)CC(C)C2(CO)CC/C(=C/CO)CO (stereo not drawn) | 79.3 µM (inactive) | > 100 µM (inactive) | > 100 µM (inactive) | > 100 µM (inactive) | > 100 µM (inactive) |  |  | > 100 µM (inactive) | > 100 µM (inactive)
CCN(c1n[n+]2c(-c3ccccc3)csc2s1)c1n[n+]2c(-c3ccccc3)csc2s1 | 50.9 µM (inactive) | 25.9 µM (inactive) |  | 46.8 µM (inactive) | 33.3 µM (inactive) | 72.8 µM (inactive) | 70.6 µM (inactive) | > 100 µM (inactive) | > 100 µM (inactive)
Cc1c(C(=O)/C=C/c2ccccc2)[n+]([O-])c2ccccc2[n+]1[O-] | 13 µM (inactive) | 10.2 µM (inactive) |  | 15.8 µM (inactive) | 15.7 µM (inactive) | 18 µM (inactive) | 11.9 µM (inactive) | 34.3 µM (inactive) | 18.7 µM (inactive)
